Patent US20100056596A1, “RESISTANCE-REPELLENT RETROVIRAL PROTEASE INHIBITORS” (Sequoia Pharmaceuticals, priority 2004, published 2010)
Like-named read-outs stand apart in the source and are kept apart here.

Columns and labels:
wild type HIV-1 protease = molecular target: T1, wild type HIV-1 protease (Human immunodeficiency virus type 1 group M subtype B, UniProt P04585); experiment: Ki against wild type (WT) HIV-1 protease; assay type: biochemical
T1 construct: over 45 of the 99 amino acids of the HIV protease monomer

HIV-1 isolates, Mutant 9 = experiment: In vitro drug sensitivity of HIV-1 laboratory isolates, Mutant 9; assay type: cell-based
Method: (§1) In Vitro Drug Sensitivity of HIV-1 Laboratory Isolates to PIs
(§2) The sensitivities of HIV-1 isolates against compounds of the invention were determined as previously described with minor modifications (Shiraska et al., Proc. Natl. Acad. Sci. USA, 92, 2398-2402 (1995)).

HIV-1 protease Mutant 9 = HIV-1 protease Mutant 9 (Human immunodeficiency virus type 1, UniProt P04585); experiment: Ki against HIV-1 protease Mutant 9; assay type: biochemical
HIV-1 isolates, WT = experiment: In vitro drug sensitivity of HIV-1 laboratory isolates, WT; assay type: cell-based
Method: as §1, §2

HIV-1 protease Mutant 8 = HIV-1 protease Mutant 8 (Human immunodeficiency virus type 1, UniProt P04585); experiment: Ki against HIV-1 protease Mutant 8; assay type: biochemical
HIV-1 isolates, Mutant 8 = experiment: In vitro drug sensitivity of HIV-1 laboratory isolates, Mutant 8; assay type: cell-based
Method: as §1, §2

[1] = Mutant 9, read-out: IC50 Mutant 9
[2] = Mutant 8, read-out: IC50 Mutant 8
[3] = Human immunodeficiency virus 1, read-out: IC50 Mutant 9
[4] = Human immunodeficiency virus 1, HIV-1 isolate WT
[5] = Human immunodeficiency virus 1, read-out: IC50 Mutant 8

Row | Structure (SMILES) | Ki (wild type HIV-1 protease; WT) [nM] | IC50 (HIV-1 isolates, Mutant 9; [1]) [nM] | Ki (HIV-1 protease Mutant 9; Mutant 9) [nM] | IC50 (HIV-1 isolates, WT; WT) [nM] | Ki (HIV-1 protease Mutant 8; Mutant 8) [nM] | IC50 (HIV-1 isolates, Mutant 8; [2]) [nM] | Ki (wild type HIV-1 protease; wild type HIV-1 protease) [nM] | IC50 (HIV-1 isolates, Mutant 9; [3]) [nM] | Ki (HIV-1 protease Mutant 9; HIV-1 protease Mutant 9) [nM] | IC50 (HIV-1 isolates, WT; [4]) [nM] | Ki (HIV-1 protease Mutant 8; HIV-1 protease Mutant 8) [nM] | IC50 (HIV-1 isolates, Mutant 8; [5]) [nM] | IC50 (HIV-1 isolates, WT; Human immunodeficiency virus 1) [nM]
1 | CCOC(=O)N(CCOC)Cc1coc2ccc(S(=O)(=O)N(CC(C)C)C[C@@H](O)[C@H](Cc3ccccc3)NC(=O)OC3COC4OCCC34)cc12 (stereo partly drawn) [Compound 126] | < 0.1 | 250 | 0.92 | 4 | < 0.3 | 60 |  |  |  |  |  |  | 
2 | CC(C)CN(CC(O)C(Cc1ccccc1)NC(=O)OC1COC2OCCC12)S(=O)(=O)c1ccc2onc(CNS(C)(=O)=O)c2c1 (stereo not drawn) [Compound 207] |  |  |  |  |  |  | < 0.1 | 54 | 0.34 | 22 | < 0.3 | 28 | 
3 | CCS(=O)(=O)N(CCOC)Cc1noc2ccc(S(=O)(=O)N(CC(C)C)CC(O)C(Cc3ccccc3)NC(=O)OC3COC4OCCC34)cc12 (stereo not drawn) [Compound 227] |  |  |  |  |  |  | < 0.1 | 80 | 2.6 | 3.6 | 0.41 | 27 | 
4 | CC(C)CN(CC(O)C(Cc1ccccc1)NC(=O)OC1COC2OCCC12)S(=O)(=O)c1ccc2onc(CNC(=O)C(F)(F)C(F)(F)F)c2c1 (stereo not drawn) [Compound 245] |  |  |  |  |  |  | < 0.1 | 190 | 0.63 | 8.4 | < 0.3 | 30 | 
5 | CC(C)CN(CC(O)C(Cc1ccccc1)NC(=O)OC1COC2OCCC12)S(=O)(=O)c1ccc2onc(Cn3ccnc3)c2c1 (stereo not drawn) [Compound 216] |  |  |  |  |  |  | < 0.1 | 250 | 1.7 | 20 | < 0.3 | 32 | 
6 | CCOC(=O)CNc1n[nH]c2ccc(S(=O)(=O)N(CC(C)C)CC(O)C(Cc3ccccc3)NC(=O)OC3COC4OCCC34)cc12 (stereo not drawn) [Compound 310] | < 0.1 |  | 0.19 |  | < 0.3 |  |  | 60 |  |  |  | 70 | 50
7 | CC(C)CN(CC(O)C(Cc1ccccc1)NC(=O)OC1COC2OCCC12)S(=O)(=O)c1ccc2onc(CNC(=O)C(F)(F)F)c2c1 (stereo not drawn) [Compound 234] |  |  |  |  |  |  | < 0.1 | 85 | 0.36 | 16 | < 0.3 | 23 | 
8 | CCOC(=O)NCc1coc2ccc(S(=O)(=O)N(CC(C)C)C[C@@H](O)[C@H](Cc3ccccc3)NC(=O)OC3COC4OCCC34)cc12 (stereo partly drawn) [Compound 112] | < 0.1 | 29 | < 0.1 | 1.8 | < 0.3 | 11 |  |  |  |  |  |  | 
9 | CC(C)CN(CC(O)C(Cc1ccccc1)NC(=O)OC1COC2OCCC12)S(=O)(=O)c1ccc2onc(CNS(=O)(=O)C(C)C)c2c1 (stereo not drawn) [Compound 204] |  |  |  |  |  |  | < 0.1 | 83 | 0.14 | 6.5 | < 0.3 | 31 | 
10 | CC(=O)OCc1noc2ccc(S(=O)(=O)N(CC(C)C)CC(O)C(Cc3ccccc3)NC(=O)OC3COC4OCCC34)cc12 (stereo not drawn) [Compound 205] |  |  |  |  |  |  | < 0.1 | 68 | 0.23 | 10 | < 0.3 | 23 | 
11 | Cc1nc(CNCc2noc3ccc(S(=O)(=O)N(CC(C)C)CC(O)C(Cc4ccccc4)NC(=O)OC4COC5OCCC45)cc23)cs1 (stereo not drawn) [Compound 242] |  |  |  |  |  |  | < 0.1 | 27 | 0.22 | 7 | < 0.3 | 15 | 
12 | CC(C)CN(C[C@@H](O)[C@H](Cc1ccccc1)NC(=O)OC1COC2OCCC12)S(=O)(=O)c1ccc2occ(CN3CCOCC3)c2c1 (stereo partly drawn) [Compound 108] | < 0.1 | 420 | 1.5 | 1.5 | < 0.3 | 38 |  |  |  |  |  |  | 
13 | Cc1coc2ccc(S(=O)(=O)N(CC(C)C)CC(O)C(Cc3ccccc3)NC(=O)OC3COC4OCCC34)cc12 (stereo not drawn) [Compound 103] | < 0.1 |  | 0.48 |  | < 0.3 |  |  | 300 |  |  |  | 35 | 3.7
14 | Cc1cc2cc(S(=O)(=O)N(CC(C)C)CC(O)C(Cc3ccccc3)NC(=O)OC3COC4OCCC34)ccc2o1 (stereo not drawn) [Compound 102] | < 0.1 |  | 0.96 |  | < 0.3 |  |  | > 400 |  |  |  | 90 | 3.7
15 | CC(C)CN(C[C@@H](O)[C@H](Cc1ccccc1)NC(=O)OC1COC2OCCC12)S(=O)(=O)c1ccc2occ(CNC(=O)c3cccnc3)c2c1 (stereo partly drawn) [Compound 118] | < 0.1 | 39 | 0.12 | 30 | < 0.3 | 35 |  |  |  |  |  |  | 
16 | CC(C)CN(CC(O)C(Cc1ccccc1)NC(=O)OC1COC2OCCC12)S(=O)(=O)c1ccc2onc(CSC(C)C)c2c1 (stereo not drawn) [Compound 209] |  |  |  |  |  |  | < 0.1 | 210 | 2.3 | 3.5 | < 0.3 | 50 | 
17 | CC(C)CN(CC(O)C(Cc1ccccc1)NC(=O)OC1COC2OCCC12)S(=O)(=O)c1ccc2[nH]nc(NCc3ccccc3)c2c1 (stereo not drawn) [Compound 306] | 0.1 |  | 1.1 |  | < 0.3 |  |  | 95 |  |  |  | 35 | 5.5
18 | CC(C)CN(CC(O)C(Cc1ccccc1)NC(=O)OC1COC2OCCC12)S(=O)(=O)c1ccc2onc(CNCC(F)(F)F)c2c1 (stereo not drawn) [Compound 229] |  |  |  |  |  |  | < 0.1 | 21 | 0.46 | 2.2 | < 0.3 | 3.1 | 
19 | CC(C)CN(CC(O)C(Cc1ccccc1)NC(=O)OC1COC2OCCC12)S(=O)(=O)c1ccc2onc(CNCC(F)(F)C(F)(F)F)c2c1 (stereo not drawn) [Compound 228] |  |  |  |  |  |  | 0.12 | 26 | 0.2 | 4.5 | < 0.3 | 9.5 | 
20 | CC(C)CN(CC(O)C(Cc1ccccc1)NC(=O)OC1COC2OCCC12)S(=O)(=O)c1ccc2onc(CO)c2c1 (stereo not drawn) [Compound 213] |  |  |  |  |  |  | < 0.1 | 55 | 0.15 | 7 | < 0.3 | 30 | 
21 | CC(C)CN(CC(O)C(Cc1ccccc1)NC(=O)OC1COC2OCCC12)S(=O)(=O)c1ccc2onc(CNCc3ccccc3)c2c1 (stereo not drawn) [Compound 232] |  |  |  |  |  |  | < 0.1 | 80 | 0.11 | 7 | < 0.3 | 55 | 
22 | CC(C)CN(C[C@@H](O)[C@H](Cc1ccccc1)NC(=O)OC1COC2OCCC12)S(=O)(=O)c1ccc2c(c1)C(=O)CCO2 (stereo partly drawn) | < 0.1 |  | 4.9 |  | 0.42 |  |  | 625 |  |  |  | 42 | 3.5
